Experimental data taken from patent US20260297094A1, “Tetracyclic Compounds as SMARCA2 and/or SMARCA4 Degraders” (Aurigene Oncology Limited, priority 2023, published 2026).
Structures can show the parent of a compound that is named as a salt.

How the values were obtained:
Format in all cases: cell-based
[1] = target: T1, SMARCA4 (Homo sapiens, UniProt P51532); experiment: SMARCA4 degradation in MV-4-11 cells by Western blot; details: MV4-11, at 100 nM, 16 hours, vs DMSO, read-out: Percent degradation SMARCA4
T1 construct: endogenous in cells; host or cells: MV-4-11 (CRL-9591)
T1 sequence (P51532 whole entry): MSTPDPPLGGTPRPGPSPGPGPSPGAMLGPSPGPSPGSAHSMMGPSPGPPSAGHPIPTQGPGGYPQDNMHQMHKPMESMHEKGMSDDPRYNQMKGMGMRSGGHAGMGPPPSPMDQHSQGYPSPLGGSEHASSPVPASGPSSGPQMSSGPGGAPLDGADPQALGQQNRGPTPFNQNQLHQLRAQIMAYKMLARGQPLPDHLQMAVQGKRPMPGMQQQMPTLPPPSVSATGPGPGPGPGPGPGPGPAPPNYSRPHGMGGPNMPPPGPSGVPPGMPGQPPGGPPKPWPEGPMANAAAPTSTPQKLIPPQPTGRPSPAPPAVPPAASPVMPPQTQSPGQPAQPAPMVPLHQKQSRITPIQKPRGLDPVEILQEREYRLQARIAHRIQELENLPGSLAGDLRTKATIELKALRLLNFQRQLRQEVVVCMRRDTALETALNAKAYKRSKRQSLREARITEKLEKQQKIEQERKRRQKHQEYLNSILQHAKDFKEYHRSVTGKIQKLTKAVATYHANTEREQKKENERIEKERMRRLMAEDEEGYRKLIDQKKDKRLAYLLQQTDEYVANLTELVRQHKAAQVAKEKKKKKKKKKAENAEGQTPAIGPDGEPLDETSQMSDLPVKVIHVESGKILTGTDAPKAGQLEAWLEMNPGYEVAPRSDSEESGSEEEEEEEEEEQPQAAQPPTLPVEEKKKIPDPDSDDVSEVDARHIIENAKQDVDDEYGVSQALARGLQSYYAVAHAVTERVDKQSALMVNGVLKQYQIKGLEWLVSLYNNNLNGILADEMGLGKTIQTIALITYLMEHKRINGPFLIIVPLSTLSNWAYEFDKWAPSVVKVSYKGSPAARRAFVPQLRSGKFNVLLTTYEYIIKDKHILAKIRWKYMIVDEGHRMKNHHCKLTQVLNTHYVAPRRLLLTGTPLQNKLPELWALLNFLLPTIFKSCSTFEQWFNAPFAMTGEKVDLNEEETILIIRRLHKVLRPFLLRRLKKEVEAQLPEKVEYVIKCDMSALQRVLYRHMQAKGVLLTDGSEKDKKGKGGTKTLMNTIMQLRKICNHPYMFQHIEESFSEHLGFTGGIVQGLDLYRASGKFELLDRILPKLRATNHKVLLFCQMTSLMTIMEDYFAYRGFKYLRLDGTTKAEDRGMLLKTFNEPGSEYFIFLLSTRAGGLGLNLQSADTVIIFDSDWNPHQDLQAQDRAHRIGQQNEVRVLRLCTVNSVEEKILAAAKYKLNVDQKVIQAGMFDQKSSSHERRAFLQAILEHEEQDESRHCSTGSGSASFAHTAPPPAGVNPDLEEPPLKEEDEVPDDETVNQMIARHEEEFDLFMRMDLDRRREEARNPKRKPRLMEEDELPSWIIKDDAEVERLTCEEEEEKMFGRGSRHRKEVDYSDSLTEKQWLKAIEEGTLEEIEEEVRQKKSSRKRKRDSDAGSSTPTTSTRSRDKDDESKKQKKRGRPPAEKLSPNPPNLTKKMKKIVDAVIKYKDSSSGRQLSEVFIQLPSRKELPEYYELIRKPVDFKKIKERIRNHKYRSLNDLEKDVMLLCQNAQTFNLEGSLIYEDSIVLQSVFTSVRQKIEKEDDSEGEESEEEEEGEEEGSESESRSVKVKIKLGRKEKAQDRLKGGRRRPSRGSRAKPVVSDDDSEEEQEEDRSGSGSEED
Method: (§1) Example-P3: Determination of SMARCA2 and SMARCA4 Degradation in MV-4-11 Cells by Western Blot
(§2) MV-4-11 (CRL-9591™) cells were plated in 6 well plates using complete Iscove's Modified Dulbecco's Medium. On the third day, compounds of present invention were added to cells from 10 mM stocks made in DMSO (Sigma Cat no. D2650). Each concentration of compound was tested with DMSO not exceeding final percentage of 0.1 in the cells. Cells were incubated with the compound for 16 hours followed by harvesting with 1×RIPA lysis buffer (Thermo Fischer, catalogue number #89900) containing protease inhibitor cocktail (Sigma catalogue number #P-8340). Equal amount of protein was loaded on SDS PAGE gel for electrophoresis. Western blot was carried out for detection of either SMARCA2 (Cell signalling technologies, catalogue number #11966) or SMARCA4 antibody (Cell signalling technologies, catalogue number #52251). Beta-Tubulin antibody (Cell signalling technologies, catalogue number #86298) was used as loading control. Percentage of SMARCA2 or SMARCA4 degradation was calculated using formula % Degradation=100−(normalized band intensity in treated sample/normalized band intensity in DMSO sample)*100. Here, “ND” refers to Not determined.

[2] = target: T2, SMARCA2 (Homo sapiens, UniProt P51531); experiment: SMARCA2 degradation in MV-4-11 cells by Western blot; details: MV4-11, 16 h, at 100 nM, vs DMSO, read-out: Percent degradation SMARCA2
T2 construct: endogenous in cells; host or cells: MV-4-11 (CRL-9591)
T2 sequence (P51531 whole entry): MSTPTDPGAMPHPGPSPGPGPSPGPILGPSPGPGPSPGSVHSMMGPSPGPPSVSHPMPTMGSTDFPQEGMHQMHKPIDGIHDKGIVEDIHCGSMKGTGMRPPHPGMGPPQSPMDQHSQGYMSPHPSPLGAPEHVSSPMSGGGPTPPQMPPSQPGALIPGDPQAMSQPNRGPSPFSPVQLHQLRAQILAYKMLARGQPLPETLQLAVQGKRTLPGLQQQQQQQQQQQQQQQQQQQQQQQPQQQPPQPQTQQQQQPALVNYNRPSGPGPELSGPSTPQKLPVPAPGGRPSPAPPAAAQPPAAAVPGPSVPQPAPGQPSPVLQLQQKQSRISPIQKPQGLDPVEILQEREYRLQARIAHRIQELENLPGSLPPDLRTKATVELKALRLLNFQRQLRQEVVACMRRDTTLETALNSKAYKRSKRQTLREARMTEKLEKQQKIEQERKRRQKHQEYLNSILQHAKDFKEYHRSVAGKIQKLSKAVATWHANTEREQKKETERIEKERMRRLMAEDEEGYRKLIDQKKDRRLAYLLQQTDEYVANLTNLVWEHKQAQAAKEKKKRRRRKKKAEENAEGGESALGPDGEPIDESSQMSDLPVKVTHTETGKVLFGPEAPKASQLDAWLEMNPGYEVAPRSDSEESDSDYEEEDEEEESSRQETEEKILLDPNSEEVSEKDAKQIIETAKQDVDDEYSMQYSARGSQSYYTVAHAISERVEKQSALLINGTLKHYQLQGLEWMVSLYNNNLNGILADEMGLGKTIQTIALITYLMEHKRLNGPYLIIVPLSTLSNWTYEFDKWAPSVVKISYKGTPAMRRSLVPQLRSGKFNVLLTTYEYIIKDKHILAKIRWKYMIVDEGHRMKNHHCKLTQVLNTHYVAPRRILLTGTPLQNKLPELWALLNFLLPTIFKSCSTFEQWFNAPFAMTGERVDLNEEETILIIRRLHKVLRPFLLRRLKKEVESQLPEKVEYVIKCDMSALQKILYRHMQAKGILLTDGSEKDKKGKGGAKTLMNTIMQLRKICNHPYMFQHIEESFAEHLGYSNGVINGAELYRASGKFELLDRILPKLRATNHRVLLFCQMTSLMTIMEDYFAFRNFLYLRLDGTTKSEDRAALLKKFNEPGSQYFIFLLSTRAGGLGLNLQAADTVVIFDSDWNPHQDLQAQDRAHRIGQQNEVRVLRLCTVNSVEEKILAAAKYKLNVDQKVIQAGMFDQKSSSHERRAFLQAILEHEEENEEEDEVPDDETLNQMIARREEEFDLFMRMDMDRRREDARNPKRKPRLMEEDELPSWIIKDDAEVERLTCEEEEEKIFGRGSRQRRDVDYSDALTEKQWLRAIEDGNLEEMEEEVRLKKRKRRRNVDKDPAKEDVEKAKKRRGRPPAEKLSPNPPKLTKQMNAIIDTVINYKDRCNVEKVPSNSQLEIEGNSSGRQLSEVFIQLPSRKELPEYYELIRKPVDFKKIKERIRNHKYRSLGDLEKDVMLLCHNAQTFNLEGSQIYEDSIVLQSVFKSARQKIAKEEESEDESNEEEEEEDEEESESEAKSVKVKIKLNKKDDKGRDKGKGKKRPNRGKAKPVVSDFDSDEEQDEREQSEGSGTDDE
Method: as §1, §2

[3] = tested on: SK-MEL-5 cells; experiment: Anti proliferative activity in SK-MEL-5 cells by Cell Titer Glo (Promega) assay; details: Homo sapiens, retreatment on Day 4, terminated on day 8, CellTiter-Glo
Method: Example-P1: Determination of Anti Proliferative Activity of Compounds in Cell Lines SK-MEL-5 by Cell Titer Glo® (Promega) Assay
Cells were seeded into 96-well plates and the plate was incubated in 37 degrees incubator overnight. The next day, compounds were diluted 3-fold to cover 9-point concentration range in DMSO. Intermediate plate dilution was prepared in media followed with compound treatment in cells. Retreatment of cells with compound dilutions was performed on Day 4 and assay was terminated on day 8 for SK-MEL-5 cells using CellTiter-Glo and the plate was kept on orbital shaker for 20 minutes at RT. Assay was terminated on day 6 for RERF-LC-A1 without a compound retreatment. Luminescence signal was recorded on VICTOR^3 instrument. Percent inhibition of proliferation was calculated at each concentration and plotted against the compound concentration. EC50 value was calculated using GraphPad® software.

[4] = tested on: MV-4-11 cells; experiment: Anti proliferative activity in MV-4-11 cells by Cell Titer Glo (Promega) assay; details: Homo sapiens, MV4-11, 72 h, 3 days, CellTiter-Glo
Method: Example-P2: Determination of Anti Proliferative Activity of Compounds in Cell Lines MV-4-11 by Cell Titer Glo® (Promega) Assay
MV-4-11 (CRL-9591™) cells were seeded in 96 well plate flat black clear bottom plates (Corning, Cat. No 3904) using complete DMEM Medium. Next day, selected compounds of the present invention were added to cells from 10 mM stocks made in DMSO (Sigma Cat no. D2650). Each concentration of compound was tested in triplicate with DMSO concentration at a final percentage not exceeding 0.3 in the cells. After the incubation of MV-4-11 cells with compound for 3 days; assay was terminated using 100 μl of CellTiter Glo® reagent (Promega, Cat. no G7572). CellTiter-Glo® Luminescent reagent determines the number of viable cells based on quantitation of ATP present which is an indicator of cell number and metabolic activity. Luminescence readings were taken in Victor-5 instrument. Percent inhibition of proliferation was calculated using formula, % inhibition=100−(luminescence value of test/luminescence value of DMSO control)*100. DMSO control (0%)=Cells in complete media with DMSO; blank=Media alone containing DMSO. EC50 was calculated using graph pad prism software.

Row | SMILES | inhibition at 0.1 µM [1] [%] | inhibition at 0.1 µM [2] [%] | EC50 [3] [nM] | EC50 [4] [nM]
1 | O=C1CCC(Oc2ccc(C3CCN(C4CCN(c5ccc6c(c5)n(C5CCCC5)c5nc(=O)c7c(Br)cccc7n65)CC4)CC3)cc2)C(=O)N1 (stereo not drawn) [Compound 2, 3-(4-(1′-(4-bromo-7-cyclopentyl-5-oxo-5,7-dihydrobenzo[4,5]imidazo[1,2-a]quinazolin-9-yl)-[1,4′-bipiperidin]-4-yl)phenoxy)piperidine-2,6-dione-TFA salt] | 100 | 100 | < 10 | < 10
2 | O=C1CCC(Nc2ccc(C3CCN(C4CCN(c5ccc6c(c5)n(C5CCCC5)c5nc(=O)c7c(Br)cccc7n65)CC4)CC3)c(F)c2)C(=O)N1 (stereo not drawn) [Compound 3, 3-((4-(1′-(4-bromo-7-cyclopentyl-5-oxo-5,7-dihydrobenzo[4,5]imidazo[1,2-a]quinazolin-9-yl)-[1,4′-bipiperidin]-4-yl)-3-fluorophenyl)amino)piperidine-2,6-dione] | 99 | 100 | < 10 | < 10
3 | O=C1CCC(c2ccc(N3CCN(C4CCN(c5ccc6c(c5)n(C5CCCC5)c5nc(=O)c7c(Br)cccc7n65)CC4)CC3)cc2)C(=O)N1 (stereo not drawn) [Compound 6, 3-(4-(4-(1-(4-bromo-7-cyclopentyl-5-oxo-5,7-dihydrobenzo[4,5]imidazo[1,2-a]quinazolin-9-yl)piperidin-4-yl)piperazin-1-yl)phenyl)piperidine-2,6-dione] | 90 | 96 | < 10 | > 100
4 | O=C1CCC(N2Cc3cc(C4CCN(C5CCN(C6CCN(c7ccc8c(c7)n(C7CCCC7)c7nc(=O)c9c(Br)cccc9n87)CC6)CC5)CC4)ccc3C2=O)C(=O)N1 (stereo not drawn) [Compound 7, 3-(5-(1″-(4-bromo-7-cyclopentyl-5-oxo-5,7-dihydrobenzo[4,5]imidazo[1,2-a]quinazolin-9-yl)-[1,4′:1′,4″-terpiperidin]-4-yl)-1-oxoisoindolin-2-yl)piperidine-2,6-dione] | 99 | 99 | < 10 | < 10
5 | Nc1cccc2c1c(=O)nc1n(C3CCCC3)c3cc(N4CCC(N5CCC(c6ccc7c(c6)CN(C6CCC(=O)NC6=O)C7=O)CC5)CC4)ccc3n21 (stereo not drawn) [Compound 8, 3-(5-(1′-(4-amino-7-cyclopentyl-5-oxo-5,7-dihydrobenzo[4,5]imidazo[1,2-a]quinazolin-9-yl)-[1,4′-bipiperidin]-4-yl)-1-oxoisoindolin-2-yl)piperidine-2,6-dione-HCl salt] | 99 | 92 | < 10 | < 10
6 | O=C1CCC(N2Cc3cc(C4CCN(C5CCN(c6ccc7c(c6)n(C6CCCC6)c6nc(=O)c8c(Cl)cccc8n76)CC5)CC4)ccc3C2=O)C(=O)N1 (stereo not drawn) [Compound 9, 3-(5-(1′-(4-chloro-7-cyclopentyl-5-oxo-5,7-dihydrobenzo[4,5]imidazo[1,2-a]quinazolin-9-yl)-[1,4′-bipiperidin]-4-yl)-1-oxoisoindolin-2-yl)piperidine-2,6-dione] | 99 | 90 | < 10 | < 10
7 | Cn1c2cc(N3CCC(N4CCC(c5ccc6c(c5)CN(C5CCC(=O)NC5=O)C6=O)CC4)CC3)ccc2n2c3cccc(Br)c3c(=O)nc12 (stereo not drawn) [Compound 14, 3-(5-(1′-(4-bromo-7-methyl-5-oxo-5,7-dihydrobenzo[4,5]imidazo[1,2-a]quinazolin-9-yl)-[1,4′-bipiperidin]-4-yl)-1-oxoisoindolin-2-yl)piperidine-2,6-dione] | 94 | 100 | < 10 | < 10
8 | Cn1c2cc(N3CCC(N4CCC(c5ccc6c(c5)CN(C5CCC(=O)NC5=O)C6=O)CC4)CC3)ccc2n2c3cccc(N)c3c(=O)nc12 (stereo not drawn) [Compound 15, 3-(5-(1′-(4-amino-7-methyl-5-oxo-5,7-dihydrobenzo[4,5]imidazo[1,2-a]quinazolin-9-yl)-[1,4′-bipiperidin]-4-yl)-1-oxoisoindolin-2-yl)piperidine-2,6-dione-HCl salt] | 95 | 96 | < 10 | < 10
9 | O=C1CCC(c2ccc(C3CCN(C4CCN(c5ccc6c(c5)n(C5CCCC5)c5nc(=O)c7c(Cl)cccc7n65)CC4)CC3)cc2)C(=O)N1 (stereo not drawn) [Compound 22, 3-(4-(1′-(4-chloro-7-cyclopentyl-5-oxo-5,7-dihydrobenzo[4,5]imidazo[1,2-a]quinazolin-9-yl)-[1,4′-bipiperidin]-4-yl)phenyl)piperidine-2,6-dione-HCl salt] | 56 | 89 | < 10 | < 10

Continued, values first:

Row | inhibition at 0.1 µM [1] [%] | inhibition at 0.1 µM [2] [%] | EC50 [3] [nM] | EC50 [4] [nM] | SMILES
10 | 97 | 90 | < 10 | < 10 | O=C1CCC(c2ccc(C3CCN(C4CCN(c5ccc6c(c5)n(C5CCCC5)c5nc(=O)c7c(Br)cccc7n65)CC4)CC3)cc2)C(=O)N1 (stereo not drawn) [Compound 4, 3-(4-(1′-(4-bromo-7-cyclopentyl-5-oxo-5,7-dihydrobenzo[4,5]imidazo[1,2-a]quinazolin-9-yl)-[1,4′-bipiperidin]-4-yl)phenyl)piperidine-2,6-dione]
11 | 100 | 99 | < 10 | < 10 | Cn1c2cc(N3CCC(N4CCC(c5ccc(NC6CCC(=O)NC6=O)cc5F)CC4)CC3)ccc2n2c3cccc(Br)c3c(=O)nc12 (stereo not drawn) [Compound 16, 3-((4-(1′-(4-bromo-7-methyl-5-oxo-5,7-dihydrobenzo[4,5]imidazo[1,2-a]quinazolin-9-yl)-[1,4′-bipiperidin]-4-yl)-3-fluorophenyl)amino)piperidine-2,6-dione]
12 | 24 | 68 | < 10 | < 10 | Cn1c2cc(N3CCC(N4CCC(c5ccc(C6CCC(=O)NC6=O)cc5)CC4)CC3)ccc2n2c3cccc(Br)c3c(=O)nc12 (stereo not drawn) [Compound 17, 3-(4-(1′-(4-bromo-7-methyl-5-oxo-5,7-dihydrobenzo[4,5]imidazo[1,2-a]quinazolin-9-yl)-[1,4′-bipiperidin]-4-yl)phenyl)piperidine-2,6-dione]
13 | 95 | 98 | < 10 | < 10 | Cn1c2cc(N3CCC(N4CCC(c5ccc(C6CCC(=O)NC6=O)cc5)CC4)CC3)ccc2n2c3cccc(Cl)c3c(=O)nc12 (stereo not drawn) [Compound 18, 3-(4-(1′-(4-chloro-7-methyl-5-oxo-5,7-dihydrobenzo[4,5]imidazo[1,2-a]quinazolin-9-yl)-[1,4′-bipiperidin]-4-yl)phenyl)piperidine-2,6-dione]
14 | 81 | 80 | 10 to 100 | > 100 | Cn1c2cc(N3CCC(N4CCC(c5ccc(C6CCC(=O)NC6=O)cc5)CC4)CC3)ccc2n2c3cccc(N)c3c(=O)nc12 (stereo not drawn) [Compound 20, 3-(4-(1′-(4-amino-7-methyl-5-oxo-5,7-dihydrobenzo[4,5]imidazo[1,2-a]quinazolin-9-yl)-[1,4′-bipiperidin]-4-yl)phenyl)piperidine-2,6-dione]
15 | 75 | 86 | 10 to 100 | > 100 | CC(C)n1c2cc(N3CCC(N4CCC(c5ccc(C6CCC(=O)NC6=O)cc5)CC4)CC3)ccc2n2c3cccc(N)c3c(=O)nc12 (stereo not drawn) [Compound 21, 3-(4-(1′-(4-amino-7-isopropyl-5-oxo-5,7-dihydrobenzo[4,5]imidazo[1,2-a]quinazolin-9-yl)-[1,4′-bipiperidin]-4-yl)phenyl)piperidine-2,6-dione]
